{"source": "patent US9061052B2", "about": "“Aqueous extract of tobacco leaves, its uses in the treatment of dependence” (NFL BIOSCIENCE, priority 2006, dated 2015)", "origin": "cited, not measured here", "system": "tobacco dependence", "settings": "in vivo"}
{"compound": "CC(NC(C)(C)C)C(=O)c1cccc(Cl)c1", "note": "(stereo not shown) [Zyban, bupropion]", "values": [{"measurement": "Adverse effects", "value": "dry mouth sensation, insomnia and dizziness"}]}
